{"source": "patent US11491127B2", "about": "“Therapeutic use of compounds” (UCL BUSINESS LTD, priority 2010, dated 2022)", "key": {"[1]": {"test_system": "release of 3H arachidonic acid / palmitic acid radiolabel from Dictyostelium cells", "assay": "Fatty acid release (3H radiolabel release from labelled cells)", "assay_type": "cell-based, Dictyostelium discoideum"}, "[2]": {"settings": "cited from earlier work"}, "[3]": {"test_system": "lipid droplets in Dictyostelium cells", "assay": "Bodipy fatty acid lipid droplet accumulation", "assay_type": "cell-based, Dictyostelium discoideum", "settings": "0.5 mM VPA; bodipy-labelled lipid"}, "[4]": {"settings": "Table 2; cited from earlier work"}, "[5]": {"test_system": "inositol trisphosphate (InsP3) levels in Dictyostelium", "settings": "Williams et al., 1999; cited from earlier work"}, "[6]": {"test_system": "uptake of 3H arachidonic acid / palmitic acid into Dictyostelium cells", "assay": "Fatty acid uptake (3H radiolabel incorporation into cells)", "assay_type": "cell-based, Dictyostelium discoideum", "settings": "for EC50: Dictyostelium"}, "[7]": {"test_system": "self-sustaining status epilepticus in Sprague Dawley rats", "assay": "In vivo status epilepticus (perforant path stimulation)", "design": "species or system rat", "settings": "for effectiveness in status epilepticus model: previously found by the inventors", "experimental": "This method has been described in detail previously (Walker et al., 1999). In brief, male Sprague Dawley rats […] were anesthetized with 1-2% isoflurane in O2. An earth electrode was positioned subcutaneously, and a monopolar recording electrode was implanted stereotactically into the right hippocampus (coordinates, 2.5 mm lateral and 4 mm caudal from bregma). A bipolar stimulating electrode was implanted in the right hemisphere and advanced into the angular bundle (coordinates, 4.4 mm lateral and 8.1 mm caudal from bregma) to stimulate the perforant path. The depths of the electrodes were adjusted to maximize the slope of the dentate granule cell field potential (Guo et al., 1999). The electrodes were held in place with dental acrylic and skull screws. The animals were allowed to recover from anaesthesia. Seven days later, the perforant path was electrically stimulated with 4-5 mA 50 μsec monopolar pulses at 20 Hz for 2 hr; this induced self-sustaining status epilepticus. After 10 min of self-sustaining status epilepticus, compounds or vehicle were administered and the behavioural seizures and EEG were monitored for 3 hours. At this point diazepam (10 mg/kg) was administered to all animals to stop the status epilepticus. Groups were compared by ANOVA followed by post-hoc testing using Tukey test, using SPSS."}, "[8]": {"test_system": "PTZ-induced epileptiform activity in entorhinal cortex-hippocampal slices", "assay": "In vitro PTZ acute seizure model, entorhinal cortex-hippocampus slices", "assay_type": "cell-based, rat", "settings": "PTZ 2 mM, [K+] 6 mM; compounds equimolar 1 mM; 30 to 40 minutes after application", "experimental": "The rats (p21) were decapitated after killing by intraperitoneal injection with an overdose of pentobarbitone (500 mg/kg). The brain was removed and placed in ice-cold sucrose solution in mM: NaCl 87, KCl 2.5, MgCl2 7, CaCl2 0.5, NaH2PO4 1.25, sucrose 75, glucose 25, equilibrated with 95% 02/5% CO2 (pH 7.4). Horizontal combined entorhinal cortex-hippocampus slices (350 μm) were prepared with a Leica vibratome (Leica V T1200S) and were then stored in an interface chamber that contained artificial cerebrospinal fluid solution (aCSF) containing in mM: NaCl 119, KCl 2.5, MgSO4 4, CaCl2 4, NaHCO326.2, NaH2PO4 1, glucose 11, and gassed with 95% O2/5% CO2. They were stored for over one hour before being transferred to a submersion recording chamber continually perfused with carbogenated aCSF for recording. Field potential recordings were made by placing glass microelectrodes (˜1-2 MΩ) filled with aCSF solution in stratum radiatum of CA1. Bipolar stimulating electrodes were positioned in the Schaffer collateral/commissural fibre pathway in stratum radiatum to confirm slice viability. In the PTZ acute seizure model, PTZ (2 mM) was added to the perfusate and [K+] was increased to 6 mM in order to induce epileptiform activity (Armand et al., 1998). In the low Mg^2+ acute seizure model, Mg^2+ free aCSF was applied to generate rhythmic short recurrent discharges. Novel anticonvulsants were applied once the frequency and amplitude of the epileptiform discharges were stable over a period of 10 min. Anticonvulsant effects were evaluated by measuring the variation of frequency of the discharges every minute. The data acquired from the 30 to 40 minutes after application novel anticonvulsants were compared by ANOVA followed by post-hoc testing using Tukey test, using SPSS statistical analysis."}, "[9]": {"test_system": "phosphoinositide (PIP and PIP2) turnover in Dictyostelium AX2 cells", "assay": "Dictyostelium phospholipid labelling (PIP and PIP2 turnover)", "assay_type": "cell-based, Dictyostelium discoideum", "settings": "for activity at 500 µM: 0.1 h", "experimental": "Phospholipid labelling was quantified using a Typhoon phosphor-imager. Even loading was determined using total lipid stain with copper sulphate."}, "[10]": {"settings": "0.5 mM VPA, 6 min treatment (printed 6 mM)"}, "[11]": {"settings": "5×PI3K knockout mutant, 0.5 mM VPA, 9 min"}, "[12]": {"settings": "PIPKinA knockout mutant, 0.5 mM VPA, 9 min"}, "[13]": {"settings": "cells lacking phospholipase C gene, 0.5 mM VPA, 9 min"}, "[14]": {"settings": "prolyl oligopeptidase (PO) ablated cells, 0.5 mM VPA, 9 min"}, "[15]": {"settings": "rPKA knockout mutant, 0.5 mM VPA, 9 min"}}, "note": "Where two headings read alike, the source gives them in different places.", "data": [{"compound": "CCCC(CCC)C(=O)O", "note": "[VPA, 2-propylpentanoic acid, reference compound]", "values": [{"measurement": "activity at 500 µM", "setting": "[1]; Dictyostelium, 0.5 h, Table 3, 3H-AA labelled cells, 30 min, 0.5 mM treatment, read-out: AA release [% of control]", "value": 50, "unit": "%"}, {"measurement": "IC50", "setting": "[1]; Dictyostelium, 3H arachidonic acid labelled cells, read-out: IC50 of decrease in radiolabel release", "value": 89, "unit": "µM"}, {"measurement": "IC50", "setting": "[1]; Dictyostelium, 3H palmitic acid labelled cells, read-out: IC50 of inhibition of tritiated palmitic acid release", "value": 163, "unit": "µM"}, {"measurement": "radiolabel release activity relative to control", "setting": "[1]; Table 3, 30 min, 0.5 mM", "value": "50 % of control"}, {"measurement": "concentration in plasma in therapeutic use", "setting": "[2]; DSM IV, 2000", "value": "400 to 700", "unit": "µM"}, {"measurement": "concentration in plasma of patients receiving treatment", "setting": "[2]; Silva et al., 2008", "value": "280 to 700", "unit": "µM"}, {"measurement": "intensity and diameter of fluorescent lipid droplets compared to untreated cells", "setting": "[3]", "value": "increase"}, {"measurement": "pKa", "setting": "[4]", "value": 4.6}, {"measurement": "treatment time required for depletion of inositol trisphosphate", "setting": "[5]", "value": 6, "unit": "h"}, {"measurement": "EC50", "setting": "[6]; 3H arachidonic acid, read-out: EC50 of increase in uptake of AA", "value": 47, "unit": "µM"}, {"measurement": "EC50", "setting": "[6]; 3H palmitic acid, read-out: EC50 of increase in uptake of palmitic acid", "value": 160, "unit": "µM"}, {"measurement": "fatty acid uptake in cell lines lacking fcsA", "setting": "[6]; fcsA -/- cells, 0.5 mM VPA", "value": "increase"}, {"measurement": "seizure control in words", "setting": "[7]; 400 mg/kg, 3 hour test period", "value": "strongly attenuated seizures"}, {"measurement": "animals in which seizures completely stopped", "setting": "[7]; 400 mg/kg, after 2 hours, 7 animals per group", "value": "did not terminate the seizures in any"}, {"measurement": "spike amplitude", "setting": "[7]; 400 mg/kg, first hour", "value": "75.2±9.2", "unit": "%"}, {"measurement": "spike amplitude", "setting": "[7]; 400 mg/kg, second hour", "value": "61.1±8.3", "unit": "%"}, {"measurement": "spike amplitude", "setting": "[7]; 400 mg/kg, third hour", "value": "55.1±6.6", "unit": "%"}, {"measurement": "effectiveness in status epilepticus model", "setting": "[7]; high dose 600 mg/kg", "value": "effective"}, {"measurement": "effectiveness in status epilepticus model", "setting": "[7]; lower dose 400 mg/kg", "value": "partial effectiveness"}, {"measurement": "frequency of epileptiform discharges (seizure discharge frequency)", "setting": "[8]", "value": "75.1±1.7", "unit": "%"}, {"measurement": "reduction in radio-labelled PIP2 turnover", "setting": "[9]; [10]", "value": 49, "unit": "%"}, {"measurement": "reduction in radio-labelled PIP turnover", "setting": "[9]; [10]", "value": 49, "unit": "%"}, {"measurement": "reduction of PIP2 turnover", "setting": "[9]; 0.5 mM VPA, 9 min treatment", "value": 79, "unit": "%"}, {"measurement": "reduction of PIP turnover", "setting": "[9]; 0.5 mM VPA, 9 min treatment", "value": 68, "unit": "%"}, {"measurement": "reduction in PIP2 turnover", "setting": "[9]; 0.5 mM VPA, 60 min treatment", "value": 94, "unit": "%"}, {"measurement": "reduction in PIP turnover", "setting": "[9]; 0.5 mM VPA, 60 min treatment", "value": 94, "unit": "%"}, {"measurement": "reduction of PIP2 production compared to untreated cells", "setting": "[9]; [11]", "value": 70, "unit": "%"}, {"measurement": "reduction of PIP production compared to untreated cells", "setting": "[9]; [11]", "value": 48, "unit": "%"}, {"measurement": "activity at 500 µM", "setting": "[9]; Dictyostelium, read-out: PIP Level (% control), Table 1, 0.5 mM compound, 3 min pre-treatment + 6 min labelling, wild type Dictyostelium", "value": 32, "unit": "%"}, {"measurement": "activity at 500 µM", "setting": "[9]; Dictyostelium, read-out: PIP level % control, Table 2, VPA and straight chain acids in Dictyostelium", "value": 32, "unit": "%"}, {"measurement": "EC50", "setting": "[9]; Dictyostelium, 0.15 h, read-out: EC50 of inhibition of phosphoinositide turnover", "value": 154, "unit": "µM"}, {"measurement": "inhibition at 250 µM", "setting": "[9]; Dictyostelium, 0.15 h, read-out: inhibition of PIP2 turnover", "value": 42, "unit": "%"}, {"measurement": "inhibition at 250 µM", "setting": "[9]; Dictyostelium, 0.15 h, read-out: inhibition of PIP turnover", "value": 25, "unit": "%"}, {"measurement": "reduction in PIP2 synthesis compared to untreated cells", "setting": "[9]; [12]", "value": 68, "unit": "%"}, {"measurement": "reduction in PIP synthesis compared to untreated cells", "setting": "[9]; [12]", "value": 54, "unit": "%"}, {"measurement": "reduction in PIP2 signalling", "setting": "[9]; [13]", "value": 75, "unit": "%"}, {"measurement": "reduction in PIP signalling", "setting": "[9]; [13]", "value": 73, "unit": "%"}, {"measurement": "reduction in PIP2 signalling", "setting": "[9]; [14]", "value": 68, "unit": "%"}, {"measurement": "reduction in PIP signalling", "setting": "[9]; [14]", "value": 66, "unit": "%"}, {"measurement": "additional reduction of PIP2 production compared to untreated cells", "setting": "[9]; [15]", "value": 33, "unit": "%"}, {"measurement": "additional reduction of PIP production compared to untreated cells", "setting": "[9]; [15]", "value": 72, "unit": "%"}]}]}
